Experimental data reported in patent US9303069B2, “Peptides for treating cancer” (University of Mississippi Medical Center, priority 2014, dated 2016).

Assays:
MDA-MB-468 cells = test: cells; conditions: Homo sapiens, MDA-MB-468, read-out: IC50 of paclitaxel (viability)
Protocol: (§2) All cell lines were exposed to increasing concentrations of paclitaxel and BRCA1-IRIS expression, and cells' viability was then measured.
(§3) Stable clones were then exposed to 0, 10 or 20 μM of EGFR (Erlotinib), ErbB2 (CP-724714), PI3′K/AKT (LY294002), p38 (SB203580), ERK (PD98059) or JNK (SP600125) inhibitors for 24 hours.

HME/IRIS cells = test: cells; conditions: Homo sapiens, read-out: IC50 of paclitaxel (viability)
Protocol: as §2
(§4) Cell viability measurement. Cell viability under different experimental conditions was determined using the MTS assay. Briefly, cells (2.5×10^4 cells per well) were seeded in 96-well plates and incubated overnight at 37° C. in 10% humidified CO2 atmosphere. The next day they were incubated with varying concentration of peptide, or inhibitors for 24 hours at 37° C. Cell viability was determined using cell Titer 96® Aqueous (Promega, Madison, Wis., USA) following manufacturer's instructions. Cell viability (%) was expressed as a ratio of treated cells to control cells×100. […] Each experiment was done in triplicate, repeated three separate times.

BT549 cells = test: cells; conditions: Homo sapiens, BT-549, read-out: IC50 of paclitaxel (viability)
Protocol: as §2, §4

BRCA1-IRIS = BRCA1-IRIS expression in breast cells (Western); assay type: cell-based, human
Protocol: HME and HME/IRIS cells were treated with 10, 20 and 50 μM of paclitaxel for 24 hours. Compared to HME/IRIS cells, untreated HME cells express very low level of BRCA1-IRIS (FIG. 68, left). […] Both EGF and NRG1, which were secreted at higher levels from untreated HME/IRIS cells, remained high after paclitaxel (until ˜50 μM, FIG. 68, left), whereas in HME cells, both were induced by low paclitaxel treatment (FIG. 68, left). Consistently, in HME/IRIS cells EGFR was phosphorylated on Y1173 (activated by EGF when EGFR is in complex with ErbB2) and ErbB2 on Y1248 (activated by NRG1 when ErbB2 is in complex with ErbB3) remained the same after paclitaxel treatment (until ˜50 μM, FIG. 68, left). Phosphorylated EGFR-Y1173 and ErbB2-Y1248 was only observed in paclitaxel treated HME cells, especially at low concentration (FIG. 68, left).
Survived/paclitaxel-resistant cells were then propagated in the absence of paclitaxel and analyzed. Again, the intrinsically high level of BRCA1-IRIS was not affected by paclitaxel in HME/IRIS cells (FIG. 69, left). […] The expressions of EGFR, ErbB2 and ErbB3 were high in HME/IRIS and HME cells (FIG. 69, left). Despite an intrinsic increase in HME/IRIS and paclitaxel-acquired increase in HME cells in AKT activation, FOXO inactivation/degradation and thus activation increase in CyclinD1, survivin, Bcl-2, Bcl-xL and NF-κB was observed (FIG. 69, right).
To test that hypothesis, an intron 11 peptide (right in FIG. 26) fused to a cell/nucleus penetrating signal at its N-terminus (left in FIG. 26) was synthesized (hereafter IRIS peptide). First, to assess the effect of this IRIS peptide, equal numbers of HME, HME/IRIS, MDA-MB-231, MDA-MB-468 and BT549 cells were exposed to increasing concentrations of scrambled or IRIS peptide for 48 hours. […] It is possible that preventing BRCA1-IRIS-X complex formation destabilizes BRCA1-IRIS and perhaps leads to its degradation.
(§1) To investigate whether inactivating BRCA1-IRIS could sensitize TNBC to paclitaxel-induced cell death, HME cells were exposed to 0.5 μM, while HME/IRIS, MDA-MB-231, MDA-MB-468 and BT549 cells were exposed to 5 μM of IRIS peptide alone or with 5, 10 or 20 μM of paclitaxel for 24 hours. […] Again, IRIS peptide alone at these concentrations led to 50% reduction in survival of all cell lines. […] Indeed, in the presence of IRIS peptide >60%, >70% and >90% reduction in the survival of all cell lines in the presence of 5, 10 and 20 μM of paclitaxel, respectively (FIG. 84).
To relate the effect of IRIS peptide on cell survival to the effect of BRCA1-IRIS on AKT and ERK survival pathways, MDA-MB-231 and MDA-MB-468 were treated with vehicle, 5 μM of IRIS peptide, 10 μM LY294002, 10 μM PD98059 for 24 hours or were transfected with BRCA1-IRIS siRNA for 72 hours.

BRCA1-IRIS and survivin = test: IHC of MDA-MB-468 tumors for BRCA1-IRIS and survivin; assay type: in vivo, mice; conditions: MDA-MB-468 tumors after treatment
Text: To study that on the molecular level, sections from these tumors were stained with H&E or for BRCA1-IRIS or survivin using immunohistochemistry. […] Accordingly, it is proposed that inactivating BRCA1-IRIS in TNBC patients might sensitize to lower paclitaxel concentrations to avoid the adverse side effects and also to prevent the recurrence of these tumors at a later point.
Immunohistochemistry (IHC). Breast tissue microarrays comprised of normal, DCIS, invasive and metastatic were purchased from US Biomax, Inc. Paraffin embedded tissue sections were de-waxed in xylene and rehydrated in alcohol. Antigen-retrieval: for FOXO3a and survivin was by heating the slides in citrate buffer (10 μM, pH 6.0) using microwave (Power level 4) for 10 minutes, for BRCA1-IRIS by incubating slides in pepsin (10 μM) for 20 min at 37° C. Endogenous peroxidase activity was suppressed by treating the slides with 3% H2O2 for 10 min. Slides were then incubated for 1 hour at room temperature with antibodies to human FOXO3a or survivin (Cell Signaling Technology, USA 1:400), or overnight at 4° C. with monoclonal anti-human BRCA1-IRIS (1:75). Vectastain Elite ABC Kit was used to develop the staining using horseradish peroxidase labeled secondary antibodies (1 hour at room temperature).

MDA-MB-468 tumors = test: In vivo efficacy on established MDA-MB-468 tumors; design: species or system mice; conditions: 12 days; paclitaxel 10 mg/kg i.p., every third day, four injections
Protocol: Nude 6-8 weeks female mice were injected with 2×10^6 of MDA-MB-468 cells in the 2nd left and 4th right mammary fat pads. When all tumors reached ˜0.1 cm^3 in volume, mice were divided into four groups, one received vehicles (i.e. DMSO injected intraperitoneally [i.p.] and scrambled peptide injected directly into tumors [i.t.]), another received paclitaxel (10 mg/kg, i.p.), the third received IRIS peptide at (10 mg/kg, i.t.), and the last received paclitaxel and IRIS peptide at half the concentrations, injected as above. Drugs were delivered every third day for total of four injections.
In Vivo efficacy of BRCA1-IRIS-inhibitory peptide. Six to eight week old female athymic SCID mice were injected in the second right and the fourth left mammary gland with 2.5×10^6 of MDAMB468 cells. Tumor growth was followed daily until tumors reached 100 mm^3. At this time mice were randomly grouped into four different groups that were injected: a) with DMSO (i.p.) and scrambled peptide (10 mg/kg) intra-tumoral (i.t.), b) injected with IRIS peptide (10 mg/kg, i.t.), c) injected with paclitaxel (10 mg/kg, i.p.), d) injected with IRIS peptide (5 mg/kg, i.t.), and paclitaxel (5 mg/kg, i.p.). […] Change in tumor volume was measured to monitor the efficacy of the treatments using caliper and is represented as percentage of volume at day 0 of treatment. […]

HME cells = test: cells; conditions: Homo sapiens, read-out: IC50 of paclitaxel (viability)
Protocol: as §2, §4

MDA-MB-231 cells = test: cells; conditions: Homo sapiens, MDA-MB-231, read-out: IC50 of paclitaxel (viability)
Protocol: as §2, §3

[1] = tested on: HME, HME/IRIS, MDA-MB-231, MDA-MB-468 and BT549 cells; test: Survival of breast cell lines with IRIS peptide, paclitaxel or both; assay type: cell-based, human; conditions: all cell lines, 24 hours
Protocol: as §1
Cell viability measurement. Cell viability under different experimental conditions was determined using the MTS assay. Briefly, cells (2.5×10^4 cells per well) were seeded in 96-well plates and incubated overnight at 37° C. in 10% humidified CO2 atmosphere. The next day they were incubated with varying concentration of peptide, or inhibitors for 24 hours at 37° C. Cell viability was determined using cell Titer 96® Aqueous (Promega, Madison, Wis., USA) following manufacturer's instructions. Cell viability (%) was expressed as a ratio of treated cells to control cells×100. Growth inhibition was also determined by manually counting cells in five different microscopic fields. Change in cell numbers (fold) was expressed as a ratio of the means of these recording of treated cells compared to control cells×100. Each experiment was done in triplicate, repeated three separate times.

CC(=O)O[C@H]1C(=O)[C@@]2(C)[C@H]([C@H](OC(=O)c3ccccc3)[C@]3(O)C[C@H](OC(=O)[C@H](O)[C@@H](NC(=O)c4ccccc4)c4ccccc4)C(C)=C1C3(C)C)[C@]1(OC(C)=O)CO[C@@H]1C[C@@H]2O [paclitaxel]
IC50 (MDA-MB-468 cells): < 20 µM
IC50 (HME/IRIS cells): ~50 µM
IC50 (BT549 cells): ~35 µM
BRCA1-IRIS expression in HME cells (BRCA1-IRIS; 1 μM of paclitaxel for 1 or 3 weeks): acquired-induction in BRCA1-IRIS expression was detected
BRCA1-IRIS expression in HME cells (BRCA1-IRIS; 10 and 20 μM paclitaxel, 24 hours): significantly upregulated BRCA1-IRIS expression
BRCA1-IRIS expression in HME/IRIS cells (BRCA1-IRIS; paclitaxel 24 hours, until ~50 μM): did not alter the expression of BRCA1-IRIS
BRCA1-IRIS and survivin expression in tumors (IHC) (BRCA1-IRIS and survivin): significantly increase BRCA1-IRIS and survivin expression
tumor size relative to control tumors (MDA-MB-468 tumors): half the size of the control tumors
IC50 (HME cells): ~5 µM
IC50 (MDA-MB-231 cells): > 50 µM
reduction in survival ([1]; paclitaxel alone at 5 μM): ~50%
reduction in survival ([1]; paclitaxel alone at 10 μM): ~60%
reduction in survival ([1]; paclitaxel alone at 20 μM): ~70%
